Assay results taken from patent US10253006B2, “Assay for the detection of the phenylpiperazine family” (RANDOX LABORATORIES LIMITED, priority 2012, dated 2019).
Like-named read-outs stand apart in the source and are kept apart here.

Tests used:
Assay type in all cases: binding, sheep
[1] = system: antibody 1 raised against Immunogen IV; assay: Biochip competitive immunoassay, antibody 1
Method: (§1) A semi-automated Evidence Investigator analyser (Randox Laboratories Ltd., Crumlin, UK) was used as the platform for a biochip assay for the detection of phenylpiperazines.
(§2) Immunogens were administered to 16-month old Suffolk sheep on a monthly basis to provide target specific polyclonal antisera. The immunisation mixture was prepared by adding 2 mg of immunogen prepared in PBS at a ratio of 50% Immunogen/PBS with 50% Freund's Complete adjuvant (Sigma, Product Number—F5881) and emulsifying the mixture to prepare the final product for immunisation. On day 0, 1 ml of the mixture described above was administered intramuscularly to adult sheep. Subsequent boosts (a total of 20 boosts) were administered intramuscularly to each sheep every 30 days. Freund's complete adjuvant (Sigma, Product Number—F5881) was used for primary immunizations and Freund's incomplete adjuvant (Sigma product Number—F5506) was used for all subsequent injections. Routine bleeds were taken between boosts to monitor the antibody titre and sensitivity, using hapten B conjugated to Horseradish peroxidase in a competitive ELISA, testing cross reactivity to 1-(3-Chlorophenyl)piperazine. In the case of the combination immunoassay, immunogens II and IV were administered to separate sheep and the resulting antisera were combined in a 1:1 ratio to form the antibody blend (1 ml of antisera from the sheep administered with Immunogen II was combined with 1 ml of antisera from the sheep administered with Immunogen IV). IgG was extracted from antisera and purified as described above, and the purified antibodies were immobilised on a biochip (9 mm×9 mm) (Randox Laboratories Ltd). The assay was based on competition for binding sites of a polyclonal antibody between Hapten B-HRP conjugate (Example 9) and phenylpiperazines and potential cross-reactants. The antibodies were immobilised and stabilised onto the biochip surface as previously described (Fitzgerald et al., 2005). Assay dilutent (155 μL), calibrator/phenylpiperazine or potential cross-reactant (25 μL) followed by Hapten-B conjugate (120 μL) were added to the appropriate biochip. The biochips were then incubated for 30 minutes at 30° C. on a thermoshaker set at 370 rpm. The biochips were then subjected to 2 quick wash cycles using the wash buffer provided, followed by 4×2 minute wash cycles. 250 μL of signal (1:1 luminol+peroxide, v/v) was then added to each biochip, and after 2 minutes the biochip carrier was imaged in the Evidence Investigator analyser.
(§3) Calibration curves were generated using the Biochip-based immunoassay. IC50 values were calculated from the graphs by taking 50% of the signal from the zero calibrator and reading the corresponding value on the x-axis, equivalent to the concentration of unlabelled ligand which reduces specific binding of labelled ligand by 50%. Specificity (measured as percentage cross-reactivity−[IC50 (analyte)/IC50 (cross-reactant)]×100) was also tested against a range of piperazine derivatives and other compounds sharing structural features (see table 1).

[2] = system: antibody 2 raised against Immunogen II
Method: as §1, §2, §3

[3] = system: Combination of antibodies 1 & 2 (antisera combined in a 1:1 ratio)
Method: as §1, §2, §3

[4] = Antibody 1, Hapten B-HRP conjugate
[5] = Antibody 1, standardized to 1-(3-chlorophenyl)piperazine monohydrochloride, Hapten B-HRP conjugate
[6] = Antibody 2, Hapten B-HRP conjugate
[7] = Antibody 2, standardized to 1-(3-chlorophenyl)piperazine monohydrochloride, Hapten B-HRP conjugate
[8] = Combination of antibodies 1 & 2, Hapten B-HRP conjugate
[9] = Combination of antibodies 1 & 2, standardized to 1-(3-chlorophenyl)piperazine monohydrochloride, Hapten B-HRP conjugate

| Compound | IC50 [1, 4] | Cross-reactivity (%) [1, 5] | IC50 [2, 6] | Cross-reactivity (%) [2, 7] | IC50 [3, 8] | Cross-reactivity (%) [3, 9] | Cross-reactivity (%) [1] | IC50 [1] | Cross-reactivity (%) [2] | IC50 [2] | Cross-reactivity (%) [3] | IC50 [3] |
| --- | --- | --- | --- | --- | --- | --- | --- | --- | --- | --- | --- | --- |
| COc1ccccc1N1CCNCC1 [1-(2-Methoxyphenyl)piperazine] | 335.160 ng/mL | <1% | 8.770 ng/mL | 34% | 15.553 ng/mL | 17% |  |  |  |  |  |  |
| Clc1cccc(N2CCNCC2)c1 [1-(3-Chlorophenyl)piperazine (mCPP), 1-(3-chlorophenyl)piperazine] | 0.907 ng/mL | 100% | 2.554 ng/mL | 100% | 2.075 ng/mL | 100% |  |  |  |  |  |  |
| Cc1cccc(N2CCNCC2)c1 [1-(3-Methylphenyl)piperazine (mMPP), 1-(3-Methylphenyl)piperazine] | 0.840 ng/mL | 129% | 1.697 ng/mL | 230% | 1.418 ng/mL | 191% |  |  |  |  |  |  |
| FC(F)(F)c1cccc(N2CCNCC2)c1 [1-(3-Trifluoromethylphenyl)piperazine] | 7.620 ng/mL | 13% | 4.831 ng/mL | 61% | 5.958 ng/mL | 44% |  |  |  |  |  |  |
| Oc1cccc(N2CCNCC2)c1 [1-(3-hydroxyphenyl)piperazine] |  |  |  |  |  |  | 31% | 3.469 ng/mL | 156% | 2.504 ng/mL | 95% | 2.848 ng/mL |
| Fc1ccc(N2CCNCC2)cc1 [1-(4-Fluorophenyl)piperazine] | 1.085 ng/mL | 54% | 7.646 ng/mL | 38% | 5.113 ng/mL | 51% |  |  |  |  |  |  |
| COc1ccc(N2CCNCC2)cc1 [1-(4-Methoxyphenyl)piperazine (pMeOPP), 1-(4-methoxyphenyl)piperazine] | 0.868 ng/mL | 68% | 19.771 ng/mL | 20% | 10.226 ng/mL | 26% |  |  |  |  |  |  |
| Oc1ccc(N2CCNCC2)cc1 [1-(4-hydroxyphenyl)piperazine] | 1.029 ng/mL | 57% | 28.195 ng/mL | 10% | 15.032 ng/mL | 18% |  |  |  |  |  |  |
| CN1CCNC(c2ccccc2)C1 (centres unmarked) [1-Methyl-3-phenylpiperazine] |  | <1% |  | <1% |  | <1% |  |  |  |  |  |  |
| c1ccc(CN2CCNCC2)cc1 [1-benzylpiperazine (BZP), 1-benzylpiperazine] | 232.706 ng/mL | <1% |  | <1% |  | <1% |  |  |  |  |  |  |
| c1ccc(N2CCNCC2)cc1 [1-phenylpiperazine] | 1.017 ng/mL | 106% | 2.795 ng/mL | 140% | 2.163 ng/mL | 125% |  |  |  |  |  |  |
| Nc1cccc(C(F)(F)F)c1O [3-Amino-2-hydroxybenzotrifluoride] |  | <1% |  | <1% |  | <1% |  |  |  |  |  |  |
| OC1(c2ccc(Cl)cc2)CCNCC1 [4-(4-Chlorophenyl)-4-Hydroxypiperidine] | 218.980 ng/mL | <1% |  | <1% |  | <1% |  |  |  |  |  |  |
| CCCCCn1cc(C(=O)c2cccc3ccccc23)c2ccccc21 [JWH-018] |  | <1% |  | <1% |  | <1% |  |  |  |  |  |  |
| CCCCCn1cc(C(=O)Cc2ccccc2OC)c2ccccc21 [JWH-250] |  | <1% |  | <1% |  | <1% |  |  |  |  |  |  |
| CCC(C(=O)c1ccc2c(c1)OCO2)N1CCCC1 (centres unmarked) [MDPBP] |  | <1% |  | <1% |  | <1% |  |  |  |  |  |  |
| CNC(C)C(=O)c1ccc(C)cc1 (centres unmarked) [Mephedrone] |  | <1% |  | <1% |  | <1% |  |  |  |  |  |  |
| COc1cc(CCN)cc(OC)c1OC [Mescaline] |  | <1% |  | <1% |  | <1% |  |  |  |  |  |  |
| C1CNCCN1 [Piperazine] |  |  |  |  |  |  | <1% |  | <1% |  | <1% |  |
| COC(=O)[C@@H]1C[C@H](OC(C)=O)C(=O)[C@H]2[C@@]1(C)CC[C@H]1C(=O)O[C@H](c3ccoc3)C[C@]21C [Salvinorin A] |  | <1% |  | <1% |  | <1% |  |  |  |  |  |  |
| O=c1n(CCCN2CCN(c3cccc(Cl)c3)CC2)nc2ccccn12 [Trazadone] |  | <1% |  | <1% |  |  |  |  |  |  | <1% |  |
| (+)-Pseudoephedrine |  | <1% |  | <1% |  | <1% |  |  |  |  |  |  |
